Data taken from article PMC6839509, “Fluorescent probes towards selective cathepsin B detection and visualization in cancer cells and patient samples” (Chemical Science, 2019).
Values joined by “and” are separate entries in the source; they are usually repeats but may differ in a detail not shown here. Equal values may be shown once. Square brackets hold non-standard residues; d marks the D form. * marks the point of attachment. Phe(4-Cl) = N[C@@H](Cc1ccc(Cl)cc1)C(=O)O; ACC = NC(=O)Cc1cc(=O)oc2cc(N*)ccc12; hTyr = N[C@@H](CCc1ccc(O)cc1)C(=O)O; hPhe = N[C@@H](CCc1ccccc1)C(=O)O; Cha = N[C@@H](CC1CCCCC1)C(=O)O; AMC = Cc1cc(=O)oc2cc(N*)ccc12; hLeu = CC(C)CC[C@H](N)C(=O)O; hSer = N[C@@H](CCO)C(=O)O; Nle = CCCC[C@H](N)C(=O)O; Nva = CCC[C@H](N)C(=O)O; Cbz = O=C(OCc1ccccc1)*; OBn = c1ccc(CO*)cc1; Bn = c1ccc(C*)cc1

Tests used:
[1] = target: T1, cathepsin B in human cancer cell lines (Homo sapiens, UniProt P07858); assay: Detection of active cathepsin B in cancer cells using Cy5-labeled MP-CB-2 probe (SDS-PAGE, Western blot); format: cell-based; conditions: A-431 cells; E-64d 25 μM; 1 μM MP-CB-2
T1 construct: we were able to label both cathepsin B active forms (single chain 29 kDa, and light chain 6 kDa); endogenous in cells; host or cells: human cancer cell lines (A-431, HCT-116, OVCAR-5, SK-OV-3, MDA-MB-231, U2-OS, PC-3, HeLa and others)
Procedure: 50 000 cells from fourteen adherent cancer cell lines were seeded into 12-well plates and allowed to attach overnight. In parallel, 50 000 cells from four non-adherent cancer cell lines were placed into 12-well plates and cultured overnight. The next day, MP-CB-2 ABP was added to the cells (1 μM final concentration) and incubated for various times (1, 4, 8, 24 hours). Next, cells were harvested, centrifuged at 500 × g for 5 min, cell pellets were washed with 1× DPBS, cells were centrifuged again at 500 × g for 5 min, and the supernatant was discarded. Finally, cell pellets were solubilized in 100 μL of 1× SDS/DTT and boiled for 5 min, cooled to room temperature and sonicated. Each sample (30 μL) was then subjected to SDS-PAGE analysis (4–12% Bis–Tris Plus 10-well gels, 200 V, 30 min), followed by protein transfer onto the membrane (0.2 μm nitrocellulose membrane, 10 V, 60 min). Ponceau S staining verified equal loading and transfer of proteins. Membranes were blocked in 2.5% BSA in TBS-T for 1 hour at room temperature. […] The images were then analyzed with the Image Studio software.
50 000 of selected cancer cells (A-431, HCT-116, OVCAR-5, SK-OV-3, MDA-MB-231, U2-OS, and PC-3) were seeded into 12-well plates and allowed to attach overnight. […] All images were analyzed with Image Studio software.

[2] = target: T2, human recombinant cathepsin L (Homo sapiens, UniProt P07711); assay: Substrate hydrolysis kinetics (kcat, KM, kcat/KM) of ACC-labeled substrates; format: biochemical; conditions: pH 5.5, 37 °C, S.D. below 15%; for kcat/KM Cat L: cathepsin L 250 nM, Michaelis–Menten, average of at least triplicate; for kcat Cat L / Km: four independent experiments; for Km: read-out: KM Cat L
T2 construct: with a 100 nM final concentration of each active cathepsin for 30 min; made in house
Procedure: (§1) All kinetic experiments were performed using a CLARIOStar (BMG LABTECH) plate reader operating in fluorescence kinetic mode using 96-well plates (Corning®, Costar®). ACC-labeled fluorescent substrates were screened at 355 nm (excitation) and 460 nm (emission) wavelengths (gain 650). The cathepsin assay buffer was composed of 100 mM sodium acetate, 100 mM sodium chloride, 10 mM DTT, 1 mM EDTA, pH 5.5. All kinetic studies were performed at 37 °C.
(§2) The kinetic parameters for all ACC-labeled substrates were determined using Michaelis–Menten kinetic according to the protocol described by Poreba et al.[41] […] All experiments were performed at least in triplicate and the results are presented as average values (S.D. for all tested substrates was below 15%).

[3] = target: T3, human recombinant cathepsin B (Homo sapiens, UniProt P07858); assay: as above; format: biochemical; conditions: for kcat/KM Cat B: cathepsin B 0.3–0.5 nM, 100 mM sodium acetate, 100 mM NaCl, 10 mM DTT, 1 mM EDTA, Michaelis–Menten, average of at least triplicate; for kcat/KM Cat B / kcat Cat B / Km: pH 5.5, 37 °C, S.D. below 15%; for kcat Cat B / Km: four independent experiments; for Km: read-out: KM Cat B
T3 construct: made in house
Procedure: as §1, §2

[4] = target: T4, human recombinant cathepsin K (Homo sapiens, UniProt P43235); assay: as above; format: biochemical; conditions: pH 5.5, 37 °C, S.D. below 15%; for kcat/KM Cat K: cathepsin K 320 nM, Michaelis–Menten, average of at least triplicate; for kcat Cat K / Km: four independent experiments; for Km: read-out: KM Cat K
T4 construct: with a 100 nM final concentration of each active cathepsin for 30 min; made in house
T4 sequence (P43235 115-329): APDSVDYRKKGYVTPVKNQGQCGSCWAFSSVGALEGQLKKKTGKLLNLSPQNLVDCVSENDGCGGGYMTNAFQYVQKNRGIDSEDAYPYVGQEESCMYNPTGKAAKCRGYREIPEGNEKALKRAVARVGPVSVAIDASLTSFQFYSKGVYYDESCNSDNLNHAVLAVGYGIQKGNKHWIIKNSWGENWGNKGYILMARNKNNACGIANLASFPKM
Procedure: as §1, §2

[5] = target: T5, human recombinant cathepsin V (Homo sapiens, UniProt O60911); assay: as above; format: biochemical; conditions: pH 5.5, 37 °C, S.D. below 15%; for kcat/KM Cat V: cathepsin V 200 nM, Michaelis–Menten, average of at least triplicate; for kcat Cat V / Km: four independent experiments; for Km: read-out: KM Cat V
T5 construct: with a 100 nM final concentration of each active cathepsin for 30 min; made in house
Procedure: as §1, §2

[6] = target: T6, human recombinant cathepsin S (Homo sapiens, UniProt P25774); assay: as above; format: biochemical; conditions: pH 5.5, 37 °C, S.D. below 15%; for kcat/KM Cat S: cathepsin S 150 nM, Michaelis–Menten, average of at least triplicate; for kcat Cat S / Km: four independent experiments; for Km: read-out: KM Cat S
T6 construct: with a 100 nM final concentration of each active cathepsin for 30 min; made in house
Procedure: as §1, §2

T6 sequence (P25774 115-331): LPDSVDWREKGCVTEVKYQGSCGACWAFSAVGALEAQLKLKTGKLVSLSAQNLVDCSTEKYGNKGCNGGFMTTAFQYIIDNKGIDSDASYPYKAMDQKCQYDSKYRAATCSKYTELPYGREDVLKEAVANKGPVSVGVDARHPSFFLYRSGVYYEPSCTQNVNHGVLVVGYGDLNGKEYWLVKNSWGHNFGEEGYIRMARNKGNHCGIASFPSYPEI
T2 sequence (P07711 114-333): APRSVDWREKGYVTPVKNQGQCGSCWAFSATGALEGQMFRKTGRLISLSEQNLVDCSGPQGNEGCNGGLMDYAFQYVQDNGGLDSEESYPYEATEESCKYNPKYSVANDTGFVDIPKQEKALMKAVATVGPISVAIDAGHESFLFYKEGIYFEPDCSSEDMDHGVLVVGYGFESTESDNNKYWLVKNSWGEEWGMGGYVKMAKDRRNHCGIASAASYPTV
T5 sequence (O60911 114-334): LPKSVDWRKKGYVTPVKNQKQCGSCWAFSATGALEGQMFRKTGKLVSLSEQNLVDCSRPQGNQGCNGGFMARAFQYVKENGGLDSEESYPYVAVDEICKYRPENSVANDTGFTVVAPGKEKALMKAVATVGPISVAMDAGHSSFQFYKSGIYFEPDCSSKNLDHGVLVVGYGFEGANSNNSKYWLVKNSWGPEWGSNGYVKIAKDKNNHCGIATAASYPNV

Molecule	kcat/KM Cat L [2]	kcat/KM Cat B [3]	kcat/KM Cat K [4]	kcat/KM Cat V [5]	kcat/KM Cat S [6]	other results
CCOC(=O)[C@H]1O[C@@H]1C(=O)N[C@@H](CC(C)C)C(=O)NCCC(C)C [E-64d]						prevention of cathepsin B labeling by MP-CB-2 on pre-incubation with inhibitor [1]: completely prevented
Ac-[Cha]LE(OBn)R-{ACC} (SMILES CC(=O)N[C@@H](CC1CCCCC1)C(=O)N[C@@H](CC(C)C)C(=O)N[C@@H](CCC(=O)OCc1ccccc1)C(=O)N[C@@H](CCCNC(=N)N)C(=O)Nc1ccc2c(CC(N)=O)cc(=O)oc2c1)	744 M⁻¹ s⁻¹	3,100,000 M^-1s^-1	14 M⁻¹ s⁻¹	949 M⁻¹ s⁻¹	40 M⁻¹ s⁻¹	kcat Cat L [2]: 0.062 s⁻¹; Km [2]: 83.5 µM; selectivity for cathepsin B in comparison with cathepsin S ([3]; from kcat/KM): ~60 000 fold; kcat Cat B [3]: 344 s⁻¹; Km [3]: 115 µM; kcat Cat K [4]: < 0.007 s⁻¹; Km [4]: > 500 µM; kcat Cat V [5]: 0.034 s⁻¹; Km [5]: 35.1 µM; kcat Cat S [6]: < 0.020 s⁻¹; Km [6]: > 500 µM
Ac-[Cha]L[hSer](Bn)R-{ACC} (SMILES CC(=O)N[C@@H](CC1CCCCC1)C(=O)N[C@@H](CC(C)C)C(=O)N[C@@H](CCOCc1ccccc1)C(=O)N[C@@H](CCCNC(=N)N)C(=O)Nc1ccc2c(CC(N)=O)cc(=O)oc2c1) [ACC-labeled tetrapeptide substrate]	1,040 M^-1s^-1	4,300,000 M^-1s^-1	14 M⁻¹ s⁻¹	518 M⁻¹ s⁻¹	44 M⁻¹ s⁻¹	kcat Cat L [2]: 0.109 s⁻¹; Km [2]: 105 µM; kcat Cat B [3]: 390 s⁻¹; Km [3]: 90.9 µM; kcat Cat K [4]: < 0.007 s⁻¹; Km [4]: > 500 µM; kcat Cat V [5]: 0.055 s⁻¹; Km [5]: 109 µM; kcat Cat S [6]: < 0.022 s⁻¹; Km [6]: > 500 µM
Ac-[Nva][Cha]E(OBn)R-{ACC} (SMILES CCC[C@H](NC(C)=O)C(=O)N[C@@H](CC1CCCCC1)C(=O)N[C@@H](CCC(=O)OCc1ccccc1)C(=O)N[C@@H](CCCNC(=N)N)C(=O)Nc1ccc2c(CC(N)=O)cc(=O)oc2c1) [ACC-labeled tetrapeptide substrate]	1,140 M^-1s^-1	4,090,000 M^-1s^-1	30 M⁻¹ s⁻¹	1,420 M^-1s^-1	37 M⁻¹ s⁻¹	
Ac-[Phe(4-Cl)]L[hSer](Bn)R-{ACC} (SMILES CC(=O)N[C@@H](Cc1ccc(Cl)cc1)C(=O)N[C@@H](CC(C)C)C(=O)N[C@@H](CCOCc1ccccc1)C(=O)N[C@@H](CCCNC(=N)N)C(=O)Nc1ccc2c(CC(N)=O)cc(=O)oc2c1) [ACC-labeled tetrapeptide substrate]	1,540 M^-1s^-1	3,780,000 M^-1s^-1	12 M⁻¹ s⁻¹	570 M⁻¹ s⁻¹	50 M⁻¹ s⁻¹	
Ac-[hLeu][Nle]E(OBn)R-{ACC} (SMILES CCCC[C@H](NC(=O)[C@H](CCC(C)C)NC(C)=O)C(=O)N[C@@H](CCC(=O)OCc1ccccc1)C(=O)N[C@@H](CCCNC(=N)N)C(=O)Nc1ccc2c(CC(N)=O)cc(=O)oc2c1) [ACC-labeled tetrapeptide substrate]	1,090 M^-1s^-1	3,450,000 M^-1s^-1	17 M⁻¹ s⁻¹	1,180 M^-1s^-1	96 M⁻¹ s⁻¹	
Ac-[hLeu][Nle][hSer](Bn)R-{ACC} (SMILES CCCC[C@H](NC(=O)[C@H](CCC(C)C)NC(C)=O)C(=O)N[C@@H](CCOCc1ccccc1)C(=O)N[C@@H](CCCNC(=N)N)C(=O)Nc1ccc2c(CC(N)=O)cc(=O)oc2c1) [ACC-labeled tetrapeptide substrate]			16 M⁻¹ s⁻¹ and 19 M⁻¹ s⁻¹		65 M⁻¹ s⁻¹ and 39 M⁻¹ s⁻¹	
Ac-[hPhe]LE(OBn)R-{ACC} (SMILES CC(=O)N[C@@H](CCc1ccccc1)C(=O)N[C@@H](CC(C)C)C(=O)N[C@@H](CCC(=O)OCc1ccccc1)C(=O)N[C@@H](CCCNC(=N)N)C(=O)Nc1ccc2c(CC(N)=O)cc(=O)oc2c1) [ACC-labeled tetrapeptide substrate]	726 M⁻¹ s⁻¹	2,100,000 M^-1s^-1	12 M⁻¹ s⁻¹	829 M⁻¹ s⁻¹	37 M⁻¹ s⁻¹	
Ac-[hTyr]LE(OBn)R-{ACC} (SMILES CC(=O)N[C@@H](CCc1ccc(O)cc1)C(=O)N[C@@H](CC(C)C)C(=O)N[C@@H](CCC(=O)OCc1ccccc1)C(=O)N[C@@H](CCCNC(=N)N)C(=O)Nc1ccc2c(CC(N)=O)cc(=O)oc2c1) [ACC-labeled tetrapeptide substrate]	1,170 M^-1s^-1	2,760,000 M^-1s^-1	14 M⁻¹ s⁻¹	692 M⁻¹ s⁻¹	41 M⁻¹ s⁻¹	
Ac-hLeu-Nle-Glu(Chx)-Arg-ACC [ACC-labeled tetrapeptide substrate]	769 M⁻¹ s⁻¹	2,600,000 M^-1s^-1	11 M⁻¹ s⁻¹	1,310 M^-1s^-1	25 M⁻¹ s⁻¹	
Cbz-Arg-Arg-{AMC} [reference compound]						selectivity for cathepsin B over cathepsin L ([3]; from kcat/KM): 17 fold
